Patent US20190029987A1, “DIMETHYL FUMARATE (DMF) FOR PREVENTION OR TREATMENT OF GOUT, ACNE, DIABETES, VITILIGO AND/OR PYODERMA GANGRENOSUM” (UNIVERSITAT ZURICH, priority 2016, published 2019)
Peptide text beside a SMILES is read from it. * marks the point of attachment. Cbz = O=C(OCc1ccccc1)*

Tests used:
Nrf2 [1] = test: Nigericin-induced Nrf2 degradation in THP-1 cells (Western blot); type: cell-based, human; conditions: THP-1, nigericin 5 μM, 1 μM added after 1 h, harvested after 2.5 h, FIG. 4I
Text: Next, the inventors investigated the activity of Nrf2 upon activation of the NLRP3 inflammasome, since inflammasome activation is ROS-dependent. […] This is surprising, since UVB irradiation is a strong inducer of ROS production and it can be anticipated that the cells would benefit from Nrf2 activation. UVB-induced secretion by HPKs requires expression of NLRP1 and NLRP3 [21]. Both nigericin and MSU crystals are considered as “true” NLRP3 activators, but HPKs cannot phagocytose MSU crystals. Therefore, the inventors treated HPKs with nigericin only and THP-1 cells with either of these NLRP3 activators. […] Therefore, NLRP3 inflammasome activation most likely induces Nrf2 protein degradation. […]
(A-C) HPKs were irradiated with (A) UVB or treated with (B) nigericin (5 μM) and cells and supernatants were harvested at different time points as indicated. […] (C) Expression of Nrf2 and Nrf2 target genes was determined by qRT-PCR. […] Cells and supernatants were harvested at different time points as indicated and analysed for (D) expression and activation of the proteins as indicated by Western blot and (E) expression of Nrf2 and Nrf2 target genes by qRT-PCR. […] Cells were harvested after 1 h or 5 h, and lysates were analysed for the expression of the indicated proteins by Western blot. […] (G) Nrf2 expression related to the indicated background band was quantified from the Western blot. […]

Nrf2 [2] = test: UVB-induced Nrf2 degradation in HPKs (Western blot); type: cell-based, human; conditions: 1 μM for 10 min, harvested after 1 h, FIG. 7D
Text: Next, the inventors investigated the activity of Nrf2 upon activation of the NLRP3 inflammasome, since inflammasome activation is ROS-dependent. […] This is surprising, since UVB irradiation is a strong inducer of ROS production and it can be anticipated that the cells would benefit from Nrf2 activation. UVB-induced secretion by HPKs requires expression of NLRP1 and NLRP3 [21]. Both nigericin and MSU crystals are considered as “true” NLRP3 activators, but HPKs cannot phagocytose MSU crystals. Therefore, the inventors treated HPKs with nigericin only and THP-1 cells with either of these NLRP3 activators. […] Therefore, NLRP3 inflammasome activation most likely induces Nrf2 protein degradation. […] However, inflammasome activation-induced Nrf2 degradation was blocked upon ablation of ASC or NLRP3 expression (FIG. 4G) and upon treatment of cells with the ROS blocker PDTC or the Ca2+ chelator BAPTA-AM (Supplementary FIG. 2D). […] However, inflammasome function was not impaired, as reflected by normal processing of pro-IL-18 (FIG. 4H). Although Keap1 expression is partially dispensable for Nrf2 degradation by inflammasome activation, the transcription factor is directed to the proteasome under these conditions, since Nrf2 degradation was inhibited by the proteasome inhibitor MG132 (FIG. 4I and FIG. 7D).
FIG. 7: (A-C) HPKs were transfected with siRNAs for 3 d as indicated. Scrambled (scr) siRNA and siRNA targeting the unrelated vascular endothelial growth factor (VEGF) served as controls. Western blots of (A) total lysates or (B) nuclear and cytoplasmic lysates and (C) qRT-PCR for expression of target gene expression. (D) HPKs were treated with MG132 (1 μM), PDTC (500 μM) or BAPTA-AM (12.5 μM) for 10 min and harvested (before UV) or irradiated with UVB and harvested after 1 h. Western blots showing expression of Nrf2. (E) Differentiated and primed THP-1 cells were pretreated with cycloheximide (CHX, 30 μg/ml) for 1 h before priming cells with upLPS overnight. Western blots show expression of the indicated proteins. […] Statistics: (C) Mann-Whitney test, related to scr control. *P≤0.05

## CC(C)C[C@@H](C=O)NC(=O)[C@H](CC(C)C)NC(=O)[C@H](CC(C)C)NC(=O)OCc1ccccc1 [MG132] (Cbz-Leu-Leu-Leu-aldehyde)
Nrf2 [1]
  inflammasome activation-induced Nrf2 degradation: inhibited
Nrf2 [2]
  inflammasome activation-induced Nrf2 degradation: inhibited
